Assay results taken from patent publication US12371432B2, “Haloallylamine compounds and application thereof” (TransThera Sciences (Nanjing), Inc., priority 2019, dated 2025).
Counter-ions that a name gives are not always drawn. Like-named read-outs stand apart in the source and are kept apart here.

Columns and labels:
[1] = Rat blood-brain barrier evaluation; format: in vivo; conditions: rat, oral, SD rats, intragastric 10 mg/kg
Experimental: (1) Animal Administration and Sampling Method:
The study compound A1, the compound A41 and PXS-4728 were dissolved in normal saline to prepare solutions. The prepared solutions were separately administered by intragastric administration to SD rats at a dose of 10 mg/kg. […] At each time point, samples were collected from three SD rats.
On the day of the study, the animals were fixed to collect 0.15 mL of blood from the jugular vein at each set time point, and the whole blood samples were put into anticoagulation tubes containing EDTA-K2. After blood sampling was completed, heart perfusion was immediately performed for the animals, and following the heart perfusion, brain tissue samples were collected.
After the whole blood samples were centrifuged under the condition of 1,524 g for 10 min, top plasma samples were collected into sample tubes. The tissue samples were weighed, added with 20% of aqueous methanol solution at a weight-to-volume ratio of 1:5 (tissue:homogenate) and homogenized. The biological samples were stored at −40° C. to −20° C. for analysis.
(4) Sample Analysis Method:
(§1) Plasma sample: The samples to be tested were taken out of the refrigerator, naturally thawed at room temperature and then swirled for 5 min, and 20 μL of plasma sample was accurately pipetted into 1.5 mL centrifuge tubes. 100 μL of internal standard working solution (solution of 5 ng/mL verapamil and 50 ng/mL glibenclamide in acetonitrile) was added, and uniform mixing was performed. After 1 min of swirling, centrifugation was performed at 13,000 rpm for 8 min. 40 μL of supernate was accurately pipetted into a 96-well plate added with 160 μL water/well in advance. Uniform mixing was performed by swirling for 10 min, followed by LC-MS/MS assay.
as §1, with “Brain tissue” for “Plasma”, “50” for “20”, “250” for “100”, “30” for “40”, “150” for “160”
(5) Data Processing Method:
Analyst 1.6.2 from AB Sciex was used to output concentration results of tested compounds. Microsoft Excel was used to calculate parameters such as mean value, standard deviation and variation coefficient (excluding those outputted directly by Analyst 1.6.2).

[2] = target: T1, rhVAP-1 (Homo sapiens, UniProt Q16853); assay: Inhibitory activity against rhVAP-1 enzyme (Biological Example 2); format: biochemical; conditions: Table 2; benzylamine substrate, Amplex Red/HRP
T1 construct: purchased PeproTech
T1 sequence (Q16853 27-763 limits assumed): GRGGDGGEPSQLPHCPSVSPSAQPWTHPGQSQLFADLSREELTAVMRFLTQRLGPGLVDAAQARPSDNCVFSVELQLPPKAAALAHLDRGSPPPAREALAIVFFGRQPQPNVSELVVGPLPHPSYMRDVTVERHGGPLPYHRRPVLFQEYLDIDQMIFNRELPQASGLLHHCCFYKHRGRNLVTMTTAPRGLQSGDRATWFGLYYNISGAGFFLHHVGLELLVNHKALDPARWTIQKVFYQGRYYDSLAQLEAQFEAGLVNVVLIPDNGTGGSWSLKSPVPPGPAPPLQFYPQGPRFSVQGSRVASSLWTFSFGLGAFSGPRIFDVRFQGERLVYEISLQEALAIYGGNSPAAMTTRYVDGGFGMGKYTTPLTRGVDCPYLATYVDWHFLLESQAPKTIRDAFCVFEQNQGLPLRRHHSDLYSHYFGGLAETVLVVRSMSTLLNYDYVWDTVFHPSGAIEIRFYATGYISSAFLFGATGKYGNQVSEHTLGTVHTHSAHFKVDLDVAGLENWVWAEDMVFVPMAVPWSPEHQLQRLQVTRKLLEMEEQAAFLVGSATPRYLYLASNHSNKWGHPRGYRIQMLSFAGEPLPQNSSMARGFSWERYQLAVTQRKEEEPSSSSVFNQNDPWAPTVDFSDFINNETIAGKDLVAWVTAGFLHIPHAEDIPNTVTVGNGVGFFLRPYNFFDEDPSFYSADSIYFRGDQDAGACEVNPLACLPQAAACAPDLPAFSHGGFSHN
Experimental: 1. Inhibitory Activity of Compounds Against rhVAP-1 Enzyme
(§2) (1) Instrument, Consumable and Reagent
Microplate reader (Perkin Elmer, Nivo 5S), black unclear-bottom 96-well plate (Corning) and rhVAP-1 (PeproTech)
(§3) (2) Preparation of Concentration Gradient Compound Solutions
(§4) An appropriate amount of the compound to be tested was taken, dissolved in DMSO to 10 mM and then stored. Before the study, an appropriate amount of mother liquor of the 10 mM compound to be tested was taken and gradiently diluted 3-fold with DMSO, 10 concentration gradients in total. Each concentration gradient was then diluted 100-fold with 0.1 M of PBS.
(§5) (3) Preparation of Enzyme Solutions
An appropriate amount of protein diluent was added into rhVAP-1 powder, obtaining 1 mg/mL of mother liquor for storage. Before the study, PBS was used to carry out dilution to obtain enzyme solutions of 4× concentrations.
(§6) (4) Preparation of Substrate Mixtures of 2× Concentrations
(§7) An appropriate amount of benzylamine was weighed and dissolved with PBS to obtain 200 mM of benzylamine solution. The benzylamine solution was added with 2 mM of Amplex Red mother liquor and 500 U/mL of HRP mother liquor and diluted with PBS to obtain substrate mixtures of 2× concentrations.
(§8) 10 μL compound solutions of different concentrations, 25 μL rhVAP-1 enzyme solutions of 4× concentrations and 15 μL of PBS were first added into a 96-well plate, shaken to be mixed uniformly and then incubated at 37° C. for 30 min. 50 μL substrate mixtures of 2× concentrations were then added into each well, and the microplate reader was immediately used to perform detection with 580 nm (20 nm) exciting light and 620 nm (10 nm) emission light for 5 min each time, 30 min in total. The inhibition rate was calculated according to the following formula: V (RFU/min)=(Ft (RFU)−F0 (RFU))/(time(min)) Inhibition rate (%)=100%−Vcmpd (RFU/min)/Vmax (RFU/min)×100%
(§9) V: fluorescence change rate; Ft: fluorescence reading at time point t; F0: initial fluorescence reading; Time: duration t; Vcmpd: fluorescence change rate of tested compound; Vmax: Max hole fluorescence change rate.
(§10) (6) Fitting of Dose-Response Curve
(§11) With the log value of concentration as the X axis and the percent inhibition rate as the Y axis, the log (inhibitor) vs. response-variable slope of analysis software GraphPad Prism 5 was used to fit a dose-response curve, thus obtaining the IC50 value of activity of each compound against the enzyme.

[3] = target: T2, rhAOC1 (Homo sapiens, UniProt P19801); assay: Selectivity against rhAOC1 enzyme (Biological Example 2); format: biochemical; conditions: Table 2; histamine substrate, Amplex Red/HRP
T2 construct: purchased R&D
T2 sequence (P19801 20-751): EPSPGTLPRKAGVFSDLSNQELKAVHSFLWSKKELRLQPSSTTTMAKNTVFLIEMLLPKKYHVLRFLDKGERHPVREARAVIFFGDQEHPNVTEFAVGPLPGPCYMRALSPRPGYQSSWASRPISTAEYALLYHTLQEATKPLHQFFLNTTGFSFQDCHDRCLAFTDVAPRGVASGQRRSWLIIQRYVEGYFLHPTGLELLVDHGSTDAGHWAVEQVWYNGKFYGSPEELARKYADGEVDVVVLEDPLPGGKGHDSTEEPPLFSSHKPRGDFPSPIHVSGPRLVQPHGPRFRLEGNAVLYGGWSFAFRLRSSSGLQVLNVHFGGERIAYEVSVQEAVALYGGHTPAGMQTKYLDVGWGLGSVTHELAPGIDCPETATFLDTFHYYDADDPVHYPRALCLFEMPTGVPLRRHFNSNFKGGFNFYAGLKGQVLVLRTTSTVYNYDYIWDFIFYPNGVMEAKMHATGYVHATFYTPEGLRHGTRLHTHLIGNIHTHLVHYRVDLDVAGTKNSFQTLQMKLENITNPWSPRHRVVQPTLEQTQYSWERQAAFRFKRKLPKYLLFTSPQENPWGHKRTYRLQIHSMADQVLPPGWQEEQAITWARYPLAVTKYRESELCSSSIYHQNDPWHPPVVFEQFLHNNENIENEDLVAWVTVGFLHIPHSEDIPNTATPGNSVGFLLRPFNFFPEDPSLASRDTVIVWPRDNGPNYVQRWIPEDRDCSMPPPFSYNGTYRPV
Experimental: 2. Selectivity of Compounds Against rhAOC1 Enzyme
as §2
Microplate reader (Perkin Elmer, Nivo 5S), black unclear-bottom 96-well plate (Corning) and rhAOC1 (R&D)
as §3
as §4, with “10-fold” for “100-fold”
as §5
An appropriate amount of rhAOC1 mother liquor with a concentration of 0.441 mg/mL was taken and diluted with an appropriate amount of 50 mM HEPES buffer solution to obtain enzyme solutions of 4× concentrations.
as §6
as §7, with “histamine” for “benzylamine”, “50 mM of HEPES buffer solution” for “PBS”, “20” for “200”
as §8, with “rhAOC1” for “rhVAP-1”, “50 mM HEPES buffer solution” for “PBS”, “detect fluorescence intensity of each well” for “perform detection”
as §9, §10, §11

concentration at 0.167 h ([1]; brain, 0.167 h, read-out: Average Brain tissue concentration (N=3)) [ng/g]	concentration at 1 h ([1]; brain, 1 h, read-out: Average Brain tissue concentration (N=3)) [ng/g]	concentration at 6 h ([1]; brain, 6 h, read-out: Average Brain tissue concentration (N=3)) [ng/g]	Kp at 0.167 h ([1]; brain/plasma, 0.167 h, read-out: Mean brain tissue/plasma concentration ratio)	Kp at 1 h ([1]; brain/plasma, 1 h, read-out: Mean brain tissue/plasma concentration ratio)	Kp at 6 h ([1]; brain/plasma, 6 h, read-out: Mean brain tissue/plasma concentration ratio)	concentration at 0.167 h ([1]; plasma, 0.167 h, read-out: Average Plasma concentration (N=3)) [ng/mL]	concentration at 1 h ([1]; plasma, 1 h, read-out: Average Plasma concentration (N=3)) [ng/mL]	concentration at 6 h ([1]; plasma, 6 h, read-out: Average Plasma concentration (N=3)) [ng/mL]	IC50 [2] [µM]	IC50 [3] [µM]	SMILES
337	1400	311	0.89	1.34	1.89	373	1040	175			CC(C)(C)NC(=O)c1ccc(OC/C(=C/F)CN)cc1 [PXS-4728, reference compound]
									0.112	9.65	CC(C)N1CCc2nn(C/C(=C/F)CN)cc2C1=O [Compound A27 hydrochloride, (E)-2-(2-(aminomethyl)-3-fluoroallyl)-5-isopropyl-2,5,6,7-tetrahydro-4H-pyrazolo[4,3-c]pyridin-4-one]
									0.05	13.1	COC1CCN(C(=O)c2ccc3c(ccn3C/C(=C/F)CN)c2)CC1 [Compound C14 hydrochloride, (E)-(1-(2-(aminomethyl)-3-fluoroallyl)-1H-indol-5-yl)(4-methoxypiperidin-1-yl)methanone]
